Source: the NIST ThermoML archive (doi:10.1016/j.jct.2016.04.014)

Assay: xn = mol fraction of the nth substance listed
Conditions: Liquid, Vibrating tube method

CCCCCCCC [octane] + CCCCCCC
mass density [kg/m3]
Conditions	100 kPa	500 kPa	5000 kPa	10000 kPa	15000 kPa	20000 kPa	25000 kPa	30000 kPa	35000 kPa	40000 kPa
293.15 K, x2 = 0.25	698.22	698.6	702.4	706.4	710.2	713.8	717.2	720.4	723.6	726.6
293.15 K, x2 = 0.5002	693.9	694.3	698.1	702.2	706	709.7	713.2	716.5	719.6	722.7
293.15 K, x2 = 0.7502	689	689.4	693.4	697.5	701.4	705.1	708.7	712	715.2	718.4
303.15 K, x2 = 0.25	690.1	690.4	694.5	698.8	702.8	706.6	710.2	713.6	716.9	720.1
303.15 K, x2 = 0.5002	685.6	686	690.2	694.5	698.6	702.5	706.1	709.6	712.9	716.1
303.15 K, x2 = 0.7502	680.7	681	685.3	689.7	693.9	697.8	701.6	705.1	708.5	711.7
313.15 K, x2 = 0.25	681.8	682.2	686.5	691.1	695.4	699.4	703.2	706.8	710.2	713.5
313.15 K, x2 = 0.5002	677.3	677.7	682.1	686.8	691.1	695.2	699.1	702.7	706.2	709.6
313.15 K, x2 = 0.7502	672.2	672.6	677.2	681.9	686.3	690.5	694.4	698.1	701.7	705.1
323.15 K, x2 = 0.25	673.4	673.8	678.5	683.4	687.9	692.1	696.1	699.9	703.6	707
323.15 K, x2 = 0.5002	668.7	669.2	674	678.9	683.6	687.9	692	695.8	699.5	703
323.15 K, x2 = 0.7502	663.5	664	668.9	674	678.7	683.1	687.3	691.2	694.9	698.5
333.15 K, x2 = 0.25	664.9	665.4	670.4	675.6	680.4	684.9	689.2	693.2	696.9	700.6
333.15 K, x2 = 0.5002	660.2	660.6	665.8	671.1	676	680.6	684.9	689	692.8	696.5
333.15 K, x2 = 0.7502	654.8	655.3	660.6	666	671.1	675.8	680.2	684.3	688.2	692
353.15 K, x2 = 0.25	647.5	648.1	653.9	659.9	665.4	670.5	675.2	679.6	683.7	687.7
353.15 K, x2 = 0.5002	642.5	643.1	649.1	655.2	660.8	666	670.8	675.3	679.5	683.6
353.15 K, x2 = 0.7502	636.9	637.4	643.6	649.9	655.7	661	665.9	670.4	674.7	678.9
373.15 K, x2 = 0.25	–	630.3	637.1	644.1	650.3	656	661.2	666.1	670.7	675.1
373.15 K, x2 = 0.5002	–	625	632	639.2	645.6	651.4	656.7	661.7	666.3	670.8
373.15 K, x2 = 0.7502	–	619	626.3	633.6	640.2	646.2	651.7	656.7	661.5	666
